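Method: 48-hour compound exposure of cells in 96-well plates, five concentrations, linear interpolation of endpoints. At the GI50, growth is halved.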 The source made the active and inactive calls. Cut-off read from the data, not from the text of the source: active = GI50 up to about 1.1 µM and inactive = higher.
Columns and labels:
Assay in all cases: NCI-60 cell line screen, 48 h
[1] = tested on: NCI/ADR-RES
[2] = tested on: SK-MEL-28
[3] = tested on: HOP-92
[4] = tested on: IGROV-1
[5] = tested on: NCI-H226
[6] = tested on: CAKI-1
[7] = tested on: MDA-MB-435
[8] = tested on: A549
[9] = tested on: SK-MEL-2
[10] = tested on: CCRF-CEM
[11] = tested on: KM12
[12] = tested on: M14
[13] = tested on: SK-OV-3
[14] = tested on: U-251
[15] = tested on: SNB-19
[16] = tested on: EKVX
[17] = tested on: SR
[18] = tested on: SF-539
[19] = tested on: HOP-62
[20] = tested on: T47D

Row | Structure (SMILES) | GI50 [1] | GI50 [2] | GI50 [3] | GI50 [4] | GI50 [5] | GI50 [6] | GI50 [7] | GI50 [8] | GI50 [9] | GI50 [10] | GI50 [11] | GI50 [12] | GI50 [13] | GI50 [14] | GI50 [15] | GI50 [16] | GI50 [17] | GI50 [18] | GI50 [19] | GI50 [20]
1 | CC(=O)OC1C(C)OC(OC2C[C@](O)(C(C)=O)Cc3c(O)c4c(c(O)c32)C(=O)c2ccccc2C4=O)C(F)C1OC(C)=O (stereo not given in full) | 1.45 µM (inactive) | 3.4 µM (inactive) | 0.457 µM (active) | 0.243 µM (active) | 0.335 µM (active) | 0.13 µM (active) | 2.25 µM (inactive) | 0.154 µM (active) | 3.11 µM (inactive) | 0.197 µM (active) | 1.85 µM (inactive) | 0.735 µM (active) | 0.617 µM (active) | 0.238 µM (active) | 0.245 µM (active) | 3.68 µM (inactive) | 0.101 µM (active) | 0.194 µM (active) | 0.367 µM (active) | 0.522 µM (active)
2 | O=C(CC(=O)N1N=C(c2ccccc2)C(/N=N/c2ccc(S(=O)(=O)CCOS(=O)(=O)O)cc2)C1=O)Nc1ccc(Cl)cc1 (stereo not given) | > 100 µM (inactive) | > 100 µM (inactive) | > 100 µM (inactive) | 8.75 µM (inactive) | > 100 µM (inactive) | > 100 µM (inactive) | > 100 µM (inactive) | > 100 µM (inactive) | > 100 µM (inactive) | 49.5 µM (inactive) | 21.7 µM (inactive) | 28.1 µM (inactive) | > 100 µM (inactive) | > 100 µM (inactive) | > 100 µM (inactive) | > 100 µM (inactive) | > 100 µM (inactive) | > 100 µM (inactive) | > 100 µM (inactive) | > 100 µM (inactive)
3 | CCCCCCCCCCCCCCCCCCOCC(COCCOCC[N+]1(CCCCCC(=O)[O-])CCCC1)Oc1ncccn1 (stereo not given) | 15.4 µM (inactive) | 6.68 µM (inactive) | 1.05 µM (active) | 0.622 µM (active) | 11.2 µM (inactive) | 9.51 µM (inactive) | 8.79 µM (inactive) | 3.95 µM (inactive) | 6.05 µM (inactive) | 2.59 µM (inactive) | 2.58 µM (inactive) | 7.41 µM (inactive) | 3.87 µM (inactive) | 0.547 µM (active) | 2.17 µM (inactive) | 14.6 µM (inactive) | 3.18 µM (inactive) | 4.36 µM (inactive) | 1.88 µM (inactive) | 5.13 µM (inactive)
4 | O=C(O)C(CCc1ccccc1)N1C(=O)c2ccccc2C1=O (stereo not given) | > 100 µM (inactive) | > 100 µM (inactive) | > 100 µM (inactive) | > 100 µM (inactive) | > 100 µM (inactive) | > 100 µM (inactive) | > 100 µM (inactive) | > 100 µM (inactive) | > 100 µM (inactive) | > 100 µM (inactive) | > 100 µM (inactive) | > 100 µM (inactive) | > 100 µM (inactive) | > 100 µM (inactive) | > 100 µM (inactive) | > 100 µM (inactive) | > 100 µM (inactive) | > 100 µM (inactive) | > 100 µM (inactive) | > 100 µM (inactive)

— ChEMBL document CHEMBL1201862, “PubChem BioAssay data set” (2004)
